This is an account of results in patent US9115152B2, “Alkylated piperazine compounds” (Genentech, Inc., priority 2011, dated 2015).

The subject of this test is production of CD69 by B lymphocytes in human whole blood. The test is described as follows: CD69 Whole Blood Assay (CD69 Hu Blood FACS). The test is classed as cell-based. The following applies: stimulated with goat F(ab')2 anti-human IgM, 20 hours, CD69 positive of CD20 positive cells, Table 2, unit inferred. The source says: A CD69 Whole Blood Assay can be conducted on Formula I compounds to determine the ability of compounds to inhibit the production of CD69 by B lymphocytes in human whole blood activated by crosslinking surface IgM with goat F(ab′)2 anti-human IgM (Example 907). CD69 is a type II C-type lectin involved in lymphocyte migration and cytokine secretion. CD69 expression represents one of the earliest available indicators of leukocyte activation and its rapid induction occurs through transcriptional activation (Vazquez et al (2009) Jour. of Immunology Published Oct. 19, 2009, doi:10.4049/jimmunol.0900839). Concentration-dependent inhibition of antigen receptor stimulation by selective Btk inhibitors induces cell surface expression of the lymphocyte activation marker CD69 (Honigberg et al (2010) Proc. Natl. Acad. Sci. 107(29):13075-13080). Thus, CD69 inhibition by selective Btk inhibitors may be correlated with therapeutic efficacy of certain B-cell disorders.
Human blood is obtained from healthy volunteers, with the following restrictions: 1 week drug-free, non-smokers. Blood (approximately 20 mls to test 8 compounds) is collected by venipuncture into Vacutainer® (Becton, Dickinson and Co.) tubes with sodium heparin.
Solutions of Formula I compounds at 10 mM in DMSO are diluted 1:10 in 100% DMSO, then are diluted by three-fold serial dilutions in 100% DMSO for a ten point dose-response curve. The compounds are further diluted 1:10 in PBS and then an aliquot of 5.5 μl of each compound is added in duplicate to a 2 ml 96-well plate; 5.5 μl of 10% DMSO in PBS is added as control and no-stimulus wells. Human whole blood—HWB (100 μl) is added to each well. After mixing the plates are incubated at 37° C., 5% CO2, 100% humidity for 30 minutes. Goat F(ab′)2 anti-human IgM (10 μl of a 500 μg/ml solution, 50 μg/ml final) is added to each well (except the no-stimulus wells) with mixing and the plates are incubated for an additional 20 hours. At the end of the 20 hour incubation, samples are incubated with fluorescent labeled antibodies for 30 minutes, at 37° C., 5% CO2, 100% humidity. Include induced control, unstained and single stains for compensation adjustments and initial voltage settings. Samples are then lysed with PharM Lyse™ (BD Biosciences Pharmingen) according to the manufacturer's instructions. Samples are then transferred to a 96 well plate suitable to be run on the BD Biosciences HTS 96 well system on the LSRII machine. Data acquired and Mean Fluorescence Intensity values were obtained using BD Biosciences DIVA Software. Results are initially analyzed by FACS analysis software (Flow Jo).

`C[C@H]1CN(C2COC2)CCN1c1ccc(Nc2cc(-c3cc(F)cc(-n4ncc5c6c(sc5c4=O)CC(C)(C)C6)c3CO)cn(C)c2=O)nc1` [Compound 131, 3-[5-fluoro-2-(hydroxymethyl)-3-[1-methyl-5-[[5-[(2S)-2-methyl-4-(oxetan-3-yl)piperazin-1-yl]-2-pyridyl]amino]-6-oxo-3-pyridyl]phenyl]-7,7-dimethyl-6,8-dihydrocyclopenta[3,4]thieno[1,3-d]pyridazin-4-one]: the CD69 Hu Blood FACS (IC70) stood at 34.9 nM.
